Laboratory results: ChEMBL document CHEMBL1201862, “PubChem BioAssay data set” (2004)
Active and inactive are the calls of the source.

Tests used:
Genome polyprotein = Genome polyprotein (dengue virus type 2, UniProt P29990); test: Dengue-2 NS5 methyltransferase inhibitors, primary screen, biochemical, confirmation dose response (AID 588689); format: functional
Cytochrome P450 2C9 = Cytochrome P450 2C9 (Homo sapiens, UniProt P11712)
[1] = cytotoxicity toward DRD oncogenic fibroblasts, dose response, cell-based, non-viral oncogenic, luminescence (AID 1934); format: functional; conditions: Homo sapiens
BJ [2] = test: cells; format: functional, cell-based; conditions: Homo sapiens
BJ [3] = test: cytotoxicity toward BJ-TERT-LT-ST fibroblasts, dose response, cell-based, RAS-independent, luminescence (AID 1935); format: functional; conditions: Homo sapiens;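 further: BJ fibroblasts immortalized with TERT plus LT and ST oncogenes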
[4] = inhibitors of firefly luciferase expression or activity, dose response, H4 neuroglioma cells, luminescence (AID 1990); format: functional, cell-based
[5] = Luminescence Cell-Based Dose Response HTS to Identify Inhibitors of 5'UTR Stem-Loop Driven Prion Protein mRNA Translation in H4 Neuroglioblastoma Cells. [Related pubchem assays: 1827 (Project Summary), 1813 (Primary HTS)]; format: functional
BJ [6] = test: cytotoxicity toward BJ-TERT fibroblasts, dose response, cell-based, RAS-independent, luminescence (AID 1933); format: functional; conditions: Homo sapiens
Aminopeptidase N = target: T1, Aminopeptidase N (Plasmodium falciparum FcB1/Columbia, UniProt O96935); test: P. falciparum M1AAP inhibitors, biochemical, fluorogenic H-Leu-NHMec substrate, 1536-well (AID 1445); design: species or system Plasmodium falciparum 3D7, 3D7
T1 sequence (O96935 whole entry): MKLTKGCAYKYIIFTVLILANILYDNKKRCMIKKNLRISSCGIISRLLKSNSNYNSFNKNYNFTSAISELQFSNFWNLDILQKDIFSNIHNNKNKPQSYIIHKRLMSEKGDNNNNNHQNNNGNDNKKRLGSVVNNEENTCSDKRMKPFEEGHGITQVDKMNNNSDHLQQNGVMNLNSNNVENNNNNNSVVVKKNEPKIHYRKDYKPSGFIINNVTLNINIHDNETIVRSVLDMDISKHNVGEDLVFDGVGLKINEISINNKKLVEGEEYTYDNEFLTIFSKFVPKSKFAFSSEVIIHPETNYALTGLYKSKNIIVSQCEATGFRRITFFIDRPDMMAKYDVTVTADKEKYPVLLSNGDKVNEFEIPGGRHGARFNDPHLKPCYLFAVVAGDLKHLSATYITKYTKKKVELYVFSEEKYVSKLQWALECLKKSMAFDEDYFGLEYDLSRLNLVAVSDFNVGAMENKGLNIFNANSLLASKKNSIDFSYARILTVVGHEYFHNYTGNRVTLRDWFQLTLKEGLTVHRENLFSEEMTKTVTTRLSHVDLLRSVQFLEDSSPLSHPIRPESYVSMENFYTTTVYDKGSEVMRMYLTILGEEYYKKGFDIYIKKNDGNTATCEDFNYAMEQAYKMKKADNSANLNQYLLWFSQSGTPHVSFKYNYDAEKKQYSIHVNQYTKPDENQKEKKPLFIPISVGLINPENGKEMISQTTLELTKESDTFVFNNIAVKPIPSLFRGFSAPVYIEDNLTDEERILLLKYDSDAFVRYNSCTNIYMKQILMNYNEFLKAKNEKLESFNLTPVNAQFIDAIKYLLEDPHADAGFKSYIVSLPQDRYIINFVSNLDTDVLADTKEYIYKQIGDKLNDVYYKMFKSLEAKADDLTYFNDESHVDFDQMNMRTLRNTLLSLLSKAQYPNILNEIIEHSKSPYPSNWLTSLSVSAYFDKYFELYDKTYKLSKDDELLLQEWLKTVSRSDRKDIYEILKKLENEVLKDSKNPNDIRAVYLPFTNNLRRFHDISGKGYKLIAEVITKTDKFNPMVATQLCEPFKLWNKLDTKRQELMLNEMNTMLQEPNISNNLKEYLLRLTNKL

[7] = growth suppression of PTEN-null colon cells, dose response, cell-based, HCT116 PTEN knockout (AID 1047); format: functional;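 further: HCT116 colon tumor cells with PTEN knocked out; cells exposed to compound for 60 hours before readout; potency for loss of cell viability measured by luminescence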
[8] = growth suppression of beta-catenin-knockout colon cells, dose response, cell-based, HCT116, human colon tumor (AID 1045); format: functional;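 further: HCT116 colon tumor cells with beta catenin knocked out; cells exposed to compound for 60 hours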
[9] = inhibitors of intracellular T. cruzi replication, confirmation, NIH3T3 host cells, beta-gal luminescence (AID 2044); format: functional, cell-based;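 further: intracellular parasites grown in NIH/3T3 mouse fibroblasts as host cells; luminescent beta-galactosidase reporter signal from transgenic T. cruzi replicating inside host cells; inhibitors lower the luminescence signal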
[10] = cytotoxicity toward NIH3T3 fibroblasts, dose response, counter-screen, cell-based, ATP luminescence, mouse fibroblasts (AID 2010); format: functional;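 further: cells exposed to compound for about 90 hours before reading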
cells = format: functional
[11] = Luminescence Cell-Based Dose Confirmation HTS to Identify Inhibitors of Platelet Dense Granule Release. [Related pubchem assays: 1663 (Primary HTS), 1678 (Summary of Project)]; format: functional
Cytochrome P450 1A2 = target: T2, Cytochrome P450 1A2 (Homo sapiens, UniProt P05177);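 further: PubChem cytochrome P450 panel assay, CYP1A2 panel member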
T2 sequence (P05177 whole entry): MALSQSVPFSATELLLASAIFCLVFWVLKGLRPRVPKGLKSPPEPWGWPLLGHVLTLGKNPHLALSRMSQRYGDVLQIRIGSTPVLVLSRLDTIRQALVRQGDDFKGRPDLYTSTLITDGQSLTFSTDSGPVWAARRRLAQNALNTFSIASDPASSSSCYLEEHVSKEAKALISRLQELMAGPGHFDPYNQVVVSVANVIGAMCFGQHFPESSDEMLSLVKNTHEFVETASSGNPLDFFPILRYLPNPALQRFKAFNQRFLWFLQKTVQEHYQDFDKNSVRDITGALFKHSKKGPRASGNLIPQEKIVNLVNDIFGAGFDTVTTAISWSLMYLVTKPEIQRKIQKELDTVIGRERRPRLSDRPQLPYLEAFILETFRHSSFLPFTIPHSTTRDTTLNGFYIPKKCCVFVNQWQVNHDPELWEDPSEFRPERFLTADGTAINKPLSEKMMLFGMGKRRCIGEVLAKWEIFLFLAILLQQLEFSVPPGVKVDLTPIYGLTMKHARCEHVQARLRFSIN

Cytochrome P450 3A4 = Cytochrome P450 3A4 (Homo sapiens, UniProt P08684);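 further: CYP3A4 tested as one member of a cytochrome P450 panel screen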
[12] = target: Luciferin 4-monooxygenase (Photinus pyralis, UniProt P08659); test: firefly luciferase enzyme inhibitors, dose response, biochemical, luminescence (AID 1891)
Cytochrome P450 2C19 = Cytochrome P450 2C19 (Homo sapiens, UniProt P33261); test: Cytochrome panel assay with activity outcomes. Panel member name: p450-cyp2c19 Compounds with AC50 equal or less than 10 uM are considered active; format: functional; conditions: read-out: AC50
SN12K1 = test: cells; format: functional; conditions: Homo sapiens
P388 = test: cells; format: functional; conditions: Mus musculus
P388/ADR = test: cells; format: functional; conditions: Mus musculus
Cytochrome P450 2D6 = Cytochrome P450 2D6 (Homo sapiens, UniProt P10635);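 further: CYP2D6 member of a cytochrome P450 panel assay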
[13] = P. falciparum Dd2 growth inhibitors, dose response, SYBR Green, cherry-picked samples (AID 1159567); format: functional, cell-based

Sequence of Cytochrome P450 2C9 (P11712 whole entry): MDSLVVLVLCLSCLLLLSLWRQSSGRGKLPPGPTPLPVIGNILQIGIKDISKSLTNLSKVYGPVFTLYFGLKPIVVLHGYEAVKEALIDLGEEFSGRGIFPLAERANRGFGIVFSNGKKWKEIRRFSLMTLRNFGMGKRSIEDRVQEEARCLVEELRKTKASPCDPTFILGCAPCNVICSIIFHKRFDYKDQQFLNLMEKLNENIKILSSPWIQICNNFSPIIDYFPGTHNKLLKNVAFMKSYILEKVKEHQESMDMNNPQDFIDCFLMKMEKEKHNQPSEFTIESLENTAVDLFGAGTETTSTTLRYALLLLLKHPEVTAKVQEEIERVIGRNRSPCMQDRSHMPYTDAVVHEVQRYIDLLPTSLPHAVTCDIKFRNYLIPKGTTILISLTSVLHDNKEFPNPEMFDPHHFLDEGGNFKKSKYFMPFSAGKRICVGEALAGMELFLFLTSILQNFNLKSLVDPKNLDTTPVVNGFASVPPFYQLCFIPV
Sequence of Genome polyprotein (P29990 2492-3391 limits assumed): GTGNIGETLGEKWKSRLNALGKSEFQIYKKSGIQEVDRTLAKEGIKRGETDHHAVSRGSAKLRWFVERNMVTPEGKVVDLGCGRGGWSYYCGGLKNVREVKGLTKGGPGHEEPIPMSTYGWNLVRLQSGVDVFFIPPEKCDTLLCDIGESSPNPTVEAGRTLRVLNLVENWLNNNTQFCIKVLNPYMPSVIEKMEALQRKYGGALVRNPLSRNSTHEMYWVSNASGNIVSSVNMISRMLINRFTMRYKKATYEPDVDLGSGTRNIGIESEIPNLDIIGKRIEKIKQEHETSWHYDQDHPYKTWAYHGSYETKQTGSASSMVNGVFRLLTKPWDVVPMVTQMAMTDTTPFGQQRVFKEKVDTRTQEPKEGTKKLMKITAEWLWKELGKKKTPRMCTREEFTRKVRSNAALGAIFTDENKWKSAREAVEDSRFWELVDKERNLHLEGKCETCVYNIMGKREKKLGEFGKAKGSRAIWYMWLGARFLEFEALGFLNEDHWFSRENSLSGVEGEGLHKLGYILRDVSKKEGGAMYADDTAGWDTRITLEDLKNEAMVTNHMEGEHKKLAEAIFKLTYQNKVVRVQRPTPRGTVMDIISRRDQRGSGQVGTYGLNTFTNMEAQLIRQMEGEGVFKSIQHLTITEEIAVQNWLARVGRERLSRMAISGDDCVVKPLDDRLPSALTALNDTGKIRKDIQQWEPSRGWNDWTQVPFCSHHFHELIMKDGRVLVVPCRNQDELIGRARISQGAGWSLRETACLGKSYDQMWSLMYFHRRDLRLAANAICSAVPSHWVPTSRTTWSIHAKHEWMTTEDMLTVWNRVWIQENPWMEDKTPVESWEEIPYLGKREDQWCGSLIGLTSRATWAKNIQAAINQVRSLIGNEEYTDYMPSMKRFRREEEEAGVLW
Sequence of Cytochrome P450 2C19 (P33261 whole entry): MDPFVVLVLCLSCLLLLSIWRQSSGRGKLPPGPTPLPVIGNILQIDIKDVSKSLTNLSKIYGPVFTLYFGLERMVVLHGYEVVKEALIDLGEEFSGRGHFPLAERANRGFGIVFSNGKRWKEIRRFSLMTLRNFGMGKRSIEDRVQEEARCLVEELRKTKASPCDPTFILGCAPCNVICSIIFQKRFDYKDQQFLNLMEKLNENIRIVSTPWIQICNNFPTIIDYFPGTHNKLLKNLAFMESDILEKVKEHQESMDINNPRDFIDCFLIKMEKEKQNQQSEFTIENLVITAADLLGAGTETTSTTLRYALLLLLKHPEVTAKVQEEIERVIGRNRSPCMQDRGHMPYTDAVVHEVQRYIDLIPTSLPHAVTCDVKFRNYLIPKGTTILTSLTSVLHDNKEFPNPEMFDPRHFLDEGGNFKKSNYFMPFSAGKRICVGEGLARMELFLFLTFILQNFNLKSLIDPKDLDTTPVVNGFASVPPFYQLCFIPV
Sequence of Cytochrome P450 3A4 (P08684 whole entry): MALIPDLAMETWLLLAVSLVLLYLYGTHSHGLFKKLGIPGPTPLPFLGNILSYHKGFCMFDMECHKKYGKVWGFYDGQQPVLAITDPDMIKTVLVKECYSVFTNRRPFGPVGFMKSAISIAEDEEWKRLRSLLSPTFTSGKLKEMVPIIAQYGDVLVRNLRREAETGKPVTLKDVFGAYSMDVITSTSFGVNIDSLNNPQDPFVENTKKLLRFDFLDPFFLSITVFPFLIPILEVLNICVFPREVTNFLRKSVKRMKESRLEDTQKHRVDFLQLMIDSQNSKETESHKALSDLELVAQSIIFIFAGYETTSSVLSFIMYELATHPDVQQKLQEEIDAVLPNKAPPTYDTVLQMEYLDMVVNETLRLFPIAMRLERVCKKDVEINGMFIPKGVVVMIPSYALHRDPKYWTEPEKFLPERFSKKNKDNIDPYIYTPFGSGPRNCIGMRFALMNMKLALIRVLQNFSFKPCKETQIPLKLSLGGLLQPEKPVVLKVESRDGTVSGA
Sequence of Luciferin 4-monooxygenase (P08659 whole entry): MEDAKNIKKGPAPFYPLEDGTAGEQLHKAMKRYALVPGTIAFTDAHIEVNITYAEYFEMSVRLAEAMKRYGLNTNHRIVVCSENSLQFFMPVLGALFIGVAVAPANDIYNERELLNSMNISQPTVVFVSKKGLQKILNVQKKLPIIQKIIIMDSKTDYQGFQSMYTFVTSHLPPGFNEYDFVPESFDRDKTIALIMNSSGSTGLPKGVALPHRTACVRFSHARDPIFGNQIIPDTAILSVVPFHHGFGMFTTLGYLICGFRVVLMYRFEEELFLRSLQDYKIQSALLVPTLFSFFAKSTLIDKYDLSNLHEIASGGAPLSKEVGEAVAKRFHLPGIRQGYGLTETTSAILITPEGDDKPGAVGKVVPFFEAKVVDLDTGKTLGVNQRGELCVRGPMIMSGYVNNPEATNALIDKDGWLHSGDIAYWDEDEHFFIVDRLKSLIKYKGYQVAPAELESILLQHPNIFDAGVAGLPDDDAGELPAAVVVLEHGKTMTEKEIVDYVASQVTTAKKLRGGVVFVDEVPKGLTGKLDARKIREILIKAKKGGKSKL
Sequence of Cytochrome P450 2D6 (P10635 whole entry): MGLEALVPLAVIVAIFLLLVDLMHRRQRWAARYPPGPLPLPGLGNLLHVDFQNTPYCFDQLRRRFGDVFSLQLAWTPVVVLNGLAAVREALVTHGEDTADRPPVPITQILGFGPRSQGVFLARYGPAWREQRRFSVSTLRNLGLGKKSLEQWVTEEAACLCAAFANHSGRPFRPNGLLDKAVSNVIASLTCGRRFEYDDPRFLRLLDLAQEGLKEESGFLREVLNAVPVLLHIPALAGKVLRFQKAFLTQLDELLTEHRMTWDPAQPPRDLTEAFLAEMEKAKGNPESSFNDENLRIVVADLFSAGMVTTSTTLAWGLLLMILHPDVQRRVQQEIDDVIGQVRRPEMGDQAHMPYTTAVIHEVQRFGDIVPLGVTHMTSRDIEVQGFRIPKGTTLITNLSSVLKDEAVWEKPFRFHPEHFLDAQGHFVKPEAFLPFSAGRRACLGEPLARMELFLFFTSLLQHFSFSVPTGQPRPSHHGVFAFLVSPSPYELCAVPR

SMILES: CSC1=C(C#N)C(=O)NC(c2ccccc2O)S1 (stereo unspecified)
- IC50 (Genome polyprotein): 45.2 µM (active)

SMILES: CN(C)c1nc(-c2cccnc2)nc2ccccc12
- AC50 (Cytochrome P450 2C9): inconclusive

SMILES: COc1ccc(-n2c(SC(C)C(=O)Nc3ncc(Cl)cc3Cl)nc3ccccc32)cc1 (stereo unspecified)
- EC50 [1]: 89.7 µM (active)
- EC50 (BJ [2]): 22.3 µM (active)
- EC50 (BJ [3]): > 150 µM (not active)
- EC50 [4]: 12.6 µM (active)
- EC50 [5]: 38.4 µM (active)
- EC50 (BJ [6]): 29.8 µM (active)

SMILES: Cc1cccc(C2C3=C(O)c4ccccc4C3=Nc3nn(-c4ccccc4)c(O)c32)c1 (stereo unspecified)
- IC50 (Genome polyprotein): 59.4 µM (active)
- IC50 (Aminopeptidase N): 38.3 µM (active)

SMILES: COCCCNC(=O)c1cc2c(=O)n(C)c3ccccc3c2n1C
- EC50 [7]: 14.4 µM (active)
- EC50 [8]: 15.4 µM (active)

SMILES: CCOc1cc(/C=C2\C(=O)ON=C2c2ccccc2)ccc1OC
- IC50 (Genome polyprotein): 27.1 µM (active)

SMILES: OC(CNc1ccccc1)COc1ccc(OCC(O)CNc2ccccc2)cc1 (stereo unspecified)
- EC50 [9]: 3.54 µM (active)
- EC50 [7]: 15.6 µM (active)
- EC50 [10]: > 60 µM (not active)
- EC50 [8]: 15 µM (active)

SMILES: COc1cccc2cc(-c3nc4ccccc4[nH]3)c(=O)oc12
- IC50 (cells): < 0.1 µM (active)

SMILES: CCOC(=O)C1=C(O)/C(=C/c2cc(OC)c(OC)c(OC)c2)N=C1C
- EC50 [11]: > 112 µM (not active)
- AC50 (Cytochrome P450 1A2): 14.1 µM (inconclusive)
- AC50 (Cytochrome P450 3A4): 17.8 µM (inconclusive)
- EC50 [12]: > 112 µM (not active)

SMILES: COc1ccc(CCN2C(=O)c3ccccc3NC2c2cc(Cl)c(O)c(OC)c2)cc1 (stereo unspecified)
- EC50 [1]: 12.9 µM (active)
- EC50 (BJ [2]): > 150 µM (inconclusive)
- EC50 (BJ [3]): 25.7 µM (inconclusive)
- EC50 (BJ [6]): 11.3 µM (inconclusive)

SMILES: O=C(Cc1ccc(Cl)cc1)NNC(=O)Nc1cccc2ccccc12
- AC50 (Cytochrome P450 1A2): 2.51 µM (inconclusive)
- AC50 (Cytochrome P450 2C9): inconclusive

SMILES: Cc1ccc(C)c(NC(=O)Cn2nnc(C(=O)Nc3c(C)cccc3C)c2N)c1
- AC50 (Cytochrome P450 2C19): 17.8 µM (inconclusive)
- AC50 (Cytochrome P450 2C9): inconclusive

SMILES: O=C(/C=C/c1ccccc1Cl)NCCN1CCOCC1
- AC50 (Cytochrome P450 2C19): 5.01 µM (inconclusive)
- AC50 (Cytochrome P450 2C9): inconclusive
- AC50 (Cytochrome P450 3A4): 15.8 µM (inconclusive)

SMILES: COc1ccc(S(=O)(=O)N/N=C/C(=O)O)cc1
- GI50 (SN12K1): 360 µM (inactive)
- GI50 (P388): 255 µM (inactive)
- GI50 (P388/ADR): 212 µM (inactive)

SMILES: C/C=C(\C)c1cc(=O)c2c(C)cc3c(c2o1)C(=O)c1c(O)c(C2CC(C)(N(C)C)C(O)C(C)O2)cc(C2CC(N(C)C)C(O)C(C)O2)c1C3=O (stereo unspecified)
- GI50 (SN12K1): 1.26 µM (inactive)
- GI50 (P388): 0.964 µM (active)
- GI50 (P388/ADR): 3.08 µM (inactive)

SMILES: Cc1cc(C(=O)N/N=C/c2ccc3c(c2)OCO3)c2ccccc2n1
- EC50 [1]: 22.7 µM (active)
- EC50 (BJ [2]): 33.6 µM (active)
- EC50 (BJ [3]): 20.9 µM (active)
- EC50 (BJ [6]): 12.7 µM (active)

SMILES: Cn1cccc1/C=N/NC(=O)c1sc2ccccc2c1Cl
- AC50 (Cytochrome P450 2C9): inconclusive
- AC50 (Cytochrome P450 2D6): 10 µM (inconclusive)

SMILES: COc1ccccc1S(=O)(=O)N1[C@@H]2CNC[C@H]1[C@H]2c1ccc(-c2ccccc2C)cc1
- AC50 [13]: 27.7 µM (active)
